Assay results: PubChem BioAssay AID608 (Sanford-Burnham Center for Chemical Genomics, 2007)
The source made the active and inactive calls. How the calls were made is not given here.

Each compound was assayed against Peptidyl-prolyl cis-trans isomerase FKBP1A (Homo sapiens) (UniProt P62942) (assay: small-molecule binding to FKBP12 – biophysical, NMR detection (AID 608)). Conditions: purified FKBP12.
Chain of Peptidyl-prolyl cis-trans isomerase FKBP1A (Homo sapiens) (P62942 whole entry, looked up): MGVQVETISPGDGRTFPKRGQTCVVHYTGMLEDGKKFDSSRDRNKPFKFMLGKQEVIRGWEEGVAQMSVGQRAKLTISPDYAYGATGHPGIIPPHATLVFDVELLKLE
In the case of `Cc1nn2c(=O)/c(=C/c3cccc(F)c3)sc2nc1=O`, the Kd was > 4 mM (inactive). With `NS(=O)(=O)c1ccccc1Cl` the Kd was > 4 mM (inactive). For `Cc1cc(OCC(=O)N2CCOCC2)cc(C)c1Cl`, the Kd was “inactive”. In the case of `CCOc1ccc(NS(=O)(=O)N2CCCCC2)cc1`, the Kd was “inactive”. With `CC1(C)CC2(CCO1)NCCN1C(=O)CSC12` (stereo unspecified) the Kd was > 4 mM (inactive). With `O=c1nc(C(F)(F)F)nc2ccccn12` the Kd was > 4 mM (inactive). With `CC(=O)Nc1nc(C)nc(-c2ccccc2)c1C(C)=O` the Kd was > 4 mM (inactive). For `N[C@@H](CCC(=O)N[C@@H](CS)C(=O)NCC(=O)O)C(=O)O`, the Kd was > 4 mM (inactive). For `CC1=C(C(=O)Nc2ccccc2)SCCO1`, the Kd was > 4 mM (inactive). `CN1CCN(c2ccc(N)cc2)CC1` was tested, and the Kd was > 4 mM (inactive). With `CCCNC(CC(=O)Nc1cccnc1)C(=O)O` (stereo unspecified) the Kd was > 4 mM (inactive). `O=C1NC(=S)NC(=O)C1=Cc1ccco1` was tested, and the Kd was > 4 mM (inactive). In the case of `NC(=O)CSc1nnc2ccc3ccccc3n12`, the Kd was > 4 mM (inactive). `Cc1ccc(NC(=O)CN2C(=O)CSC2=O)cc1` was tested, and the Kd was > 4 mM (inactive). `CC(=O)Nc1cc(S(=O)(=O)N(C)C)ccc1Cl` was tested, and the Kd was > 4 mM (inactive). For `C=CCc1cc(C(=O)N2CCCCC2)ccc1O`, the Kd was > 4 mM (inactive). `N#Cc1cccc(Cn2nnc(-c3ccccc3)n2)c1` was tested, and the Kd was > 4 mM (inactive). In the case of `O=C(O)C1C(=O)NCC1c1ccccc1` (stereo unspecified), the Kd was > 4 mM (inactive). `CC(=O)NC1=NN(c2ccccc2)C(=O)C1` was tested, and the Kd was > 4 mM (inactive). For `S=C(Cc1cccnc1)N1CCOCC1`, the Kd was > 4 mM (inactive). In the case of `NCCc1ccc(S(N)(=O)=O)cc1`, the Kd was > 4 mM (inactive). In the case of `O=C1CNC(=O)/C1=C/c1ccc(O)cc1`, the Kd was > 4 mM (inactive). `COC(=O)CC1NC2CCCCC2NC1=O` (stereo unspecified) was tested, and the Kd was > 4 mM (inactive). For `O=C(NN1CCOCC1)c1cccs1`, the Kd was > 4 mM (inactive). In the case of `Cc1occc1C(=O)Nc1nccs1`, the Kd was > 4 mM (inactive). `CC(CCC(=O)O)[C@H]1CCC2C3CC[C@@H]4CCCC[C@]4(C)C3CC[C@@]21C` (stereo partly specified) was tested, and the Kd was > 4 mM (inactive). `O=S(=O)(Nc1cccnc1Cl)c1ccccc1` was tested, and the Kd was > 4 mM (inactive). `O=C(O)c1ccc2sccc2c1` was tested, and the Kd was > 4 mM (inactive). `CC(C)CCCC(C)[C@H]1CCC2C3CC=C4CC(=O)CC[C@]4(C)C3CC[C@@]21C` (stereo partly specified) was tested, and the Kd was > 4 mM (inactive). With `Nc1nc(=S)n2c(n1)oc1ccccc12` the Kd was > 4 mM (inactive). In the case of `ON=c1ccc2nc3ccccc3nc2cc1`, the Kd was > 4 mM (inactive). In the case of `CN(C)Cc1c(N)cccc1O`, the Kd was > 4 mM (inactive). For `Cc1nn2c(nc1=O)SCC(c1ccccc1)=N2`, the Kd was > 4 mM (inactive). `O=C(CNC(=O)c1ccc(F)cc1)NC1=NCCS1` was tested, and the Kd was > 4 mM (inactive). With `CC1(C)C=Cc2cc3ccc(=O)oc3cc2O1` the Kd was > 4 mM (inactive). `COc1c(O)cc(O)cc1O` was tested, and the Kd was > 4 mM (inactive). For `O=C(O)C1CC2CC1CCC2O` (stereo unspecified), the Kd was > 4 mM (inactive). In the case of `Nc1nc2ccc(N3CCOCC3)cc2s1`, the Kd was > 4 mM (inactive). With `CC(=O)O[C@H]1CC[C@@]2(C)C(=CC(=O)C3C4CCC(C(C)CCCC(C)C)[C@@]4(C)CCC32)C1` (stereo partly specified) the Kd was > 4 mM (inactive). With `COCC(=O)/C=C1\Sc2ccccc2N1C` the Kd was > 4 mM (inactive). In the case of `CC(=O)c1csc(-c2cc(C)on2)n1`, the Kd was > 4 mM (inactive). For `NC(=O)CS(=O)(=O)c1ccc2ccccc2c1`, the Kd was > 4 mM (inactive). In the case of `NC(=O)Cc1nc(-c2ccccc2)cs1`, the Kd was > 4 mM (inactive). For `CC(C)=CC(=O)Nc1ccc2c(c1)OCO2`, the Kd was > 4 mM (inactive). For `CC(=O)Nc1cccc(NC(=O)c2ccco2)c1`, the Kd was > 4 mM (inactive). For `O=C(O)C1CC(=O)N(Cc2cccs2)C1` (stereo unspecified), the Kd was > 4 mM (inactive). With `O=C(Nc1ccc(N2CCCC2=O)cc1)c1cccc(F)c1` the Kd was > 4 mM (inactive). `Cc1ccc(-c2nc(-c3cccnc3)no2)cc1` was tested, and the Kd was > 4 mM (inactive). For `CC1CN(C(=O)c2sc3ccccc3c2Cl)CC(C)O1` (stereo unspecified), the Kd was “inactive”. In the case of `O=C(O)CC12CC3CC(CC(O)(C3)C1)C2`, the Kd was > 4 mM (inactive). In the case of `O=C1C2C3CCC(O3)C2C(=O)N1c1ccccc1` (stereo unspecified), the Kd was > 4 mM (inactive).
